Tests used:
rats = details: cited from earlier work
rodents = details: cited from earlier work; for carcinogenicity: N-nitroso derivatives of tobacco alkaloids
F-344 rat esophagus = details: in contrast to other tissues; cited from earlier work
F-344 rats = details: NNN in drinking water; cited from earlier work
tissues of the body = details: [14C] NNN, adult male C57BL/6J mice; cited from earlier work
[1] = system: malignant growth and tumor development; details: cited from earlier work
epithelial membranes = details: cited from earlier work
nitrosamine localization [2] = test: Inhibition of selective localization of nitrosamines (delocalization), general statement; type: in vivo
Excerpt: The alcohols which are operable according to the invention include alcohols having two or more carbons. However, it is preferable to use alcohols having alkyl groups of at least three carbons or greater. The alkyl groups may have a straight-chain or branched chain structure. Moreover, the alkyl groups may have a cyclic or acyclic structure.

bronchial epithelium = test: Whole-body autoradiography of [14C] NNN after inhalation of cyclohexanol vapor; type: in vivo, C57BL/6J mouse; details: 5 min inhalation
Description: The mouse was kept in the closed beaker for about five minutes as the bottom of the beaker was maintained at 50° C. in a water bath. […] Handbook of Chemistry and Physics (1979) at D-203 to D-217, which is incorporated herein in its entirety.
One hour later, the mouse was anesthetized lightly by ether and frozen by immersion in dry ice/hexane. […] Control experiments were conducted for comparison purposes and radioactivity was detected in the respiratory epithelium in the controls.
Example 2 was duplicated, except that the mouse was kept in the closed beaker for five minutes as the bottom of the beaker was maintained at 20° C. in a water bath. […] After injection as in Example 2, the mouse was processed in the same manner as in Example 2.

[3] = Whole-body autoradiography: localization of [14C] NNN radioactivity in bronchial epithelium after oral alcohol pretreatment; type: in vivo, male C57BL/6J mice
Description: (§1) One hour later, the mice were anesthetized lightly with ether and frozen by immersion in dry ice/hexane. Twenty u-thick whole-body sagittal sections of the frozen mice were taken onto Scotch tape and were then processed for whole-body autoradiography by known methods. See W. Waddell et al, Drug Fate and Metabolism: Methods and Techniques. E.R. Garrett and J.L. Hirtz, Eds. […] Photometric density in areas of the developed autoradiographs was measured with an ADG Instruments photometer and a photocell with an aperture of three mm lying on the easel of a photographic enlarger. The X-ray film was placed in the enlarger and raised to produce a magnification of thirty-five times on the easel.
(§2) NNN. […] (Twenty minutes is the average time it takes for alcohols introduced by oral intubation in mice to reach the peak blood level.)
(§3) The number within each bar thereof represents the dose in g/kg of the alcohol which was administered orally twenty minutes before the [^14 C] NNN was given intravenously. The mice were frozen one hour after receiving the [^14 C] NNN. The means for each mouse were from fifteen measurements on random areas of that site (five absorbancies on each of three autoradiographs) after setting blood in each on zero. The control value is the mean from six mice; the n-butanol at one g/kg is from two mice; and the other means are from one mouse.

salivary duct epithelium = details: oral 20 min before i.v. [14C] NNN; ethanol 1 and 5 g/Kg, n-butanol 0.2 and 1 g/Kg; 1 h
Description: as §1, §2, §3

liver = details: oral 20 min before i.v. [14C] NNN; ethanol 1 and 5 g/Kg, n- and t-butanol 0.2 and 1 g/Kg; 1 h
Description: as §1, §2, §3

nitrosamine localization [4] = test: Whole-body autoradiography of [14C] NNN after intraperitoneal imidazole; type: in vivo, male C57BL/6J mouse; details: 20 min before i.v. [14C] NNN, vs control mouse
Description: An adult male C57BL/6J mouse was injected intraperitoneally with 0.02 ml/g body weight of a solution of imidazole in water. The imidazole solution concentration was such that 0.05 g of imidazole was delivered per kg of body weight. […] See Example 1.
Example 4 was duplicated except that the adult mouse was injected intraperitoneally with 0.02 ml/g body weight of a solution of imidazole in water, wherein the solution concentration was such that 0.25 g of imidazole was delivered per kg of body weight.

adult human = details: per kg body weight; cited from earlier work

CCCCC(CC)CO (stereo not shown) [2-ethyl hexanol]
Acute Oral LD50 rats (rats; rat, in vivo, po): 3200 to 7100 mg/kg

CN(CCCC(=O)c1cccnc1)N=O [NNK, 4-N-methyl-N-nitrosamino)-1-(3-pyridyo-1-butano]
carcinogenicity (rodents): powerful environmental carcinogens

O=NN1CCCC1c1cccnc1 (stereo not shown) [NNN, N'-Nitrosonoronicotine]
hydroxylation at the a-carbon of NNN adjacent to the pyridine ring (F-344 rat esophagus): preferentially catalyzes hydroxylation at the a-carbon of NNN adjacent to the pyridine ring
carcinogenicity (rodents): powerful environmental carcinogens
sites of tumor formation (rodents; in vivo): typically induces tumor formation at five sites, namely the nasal cavity, salivary duct, esophagus, bronchial epithelium and the liver
carcinogenesis in olfactory epithelium, lung, salivary glands (rodents; rodents): known to induce carcinogenesis in the olfactory epithelium, lung, salivary glands
esophageal tumors (F-344 rats): esophageal tumors have been induced
retention of radioactivity versus sites of tumor formation (tissues of the body): striking correlation of the retention of radioactivity with the previously reported sites of tumor formation

[Se] [Selenium]
tumor development [1]: inhibit tumor development

O=C1O[C@H]([C@@H](O)CO)C(O)=C1O [Vitamin C]
formation of nitrosamines on epithelial membranes (epithelial membranes): prevent the formation of nitrosamines on epithelial membranes

S=C=NCc1ccccc1 [benzylisothiocyanate]
delocalization of nitrosamines (nitrosamine localization [2]): found to delocalize nitrosamines

OC1CCCCC1 [cyclohexanol]
radioactivity in bronchial epithelium (bronchial epithelium; 20° C., 0.001% cyclohexanol in air): No radioactivity was detected in any part of the bronchial epithelium
radioactivity in bronchial epithelium (bronchial epithelium; 50° C., 0.01% cyclohexanol in air): No radioactivity was detected in any part of the bronchial epithelium

C[S+](C)[O-] [dimethylsulfoxide (DMSO), dimethylsulfoxide]
delocalization of nitrosamines (nitrosamine localization [2]): found to delocalize nitrosamines

CCO [ethanol]
localization of radioactivity in bronchial epithelium ([3]; oral 20 min before i.v. [14C] NNN, ethanol 1 and 5 g/Kg, n-butanol 0.2 and 1 g/Kg, 1 h): reduced by pretreatment
localization of radioactivity in salivary duct epithelium (salivary duct epithelium): reduced by pretreatment
localization of radioactivity in periportal and central areas of the liver (liver): reduced by pretreatment

c1c[nH]cn1 [imidazole]
nitrosamine delocalization (nitrosamine localization [4]; 0.05 g/kg imidazole i.p.): Significant nitrosamine delocalization
delocalization of nitrosamine (nitrosamine localization [4]; 0.25 g/kg imidazole i.p.): significant delocalization of nitrosamine
delocalization of nitrosamines (nitrosamine localization [2]): found to delocalize nitrosamines

CN1CCCC1c1cccnc1 (stereo not shown) [nicotine]
estimated acutely fatal oral dose (adult human): 1 mg/kg

c1cn[nH]c1 [pyrazole]
delocalization of nitrosamines (nitrosamine localization [2]): found to delocalize nitrosamines

CC1=C(/C=C/C(C)=C/C=C/C(C)=C/CO)C(C)(C)CCC1 [retinol, reference compound]
inhibition of nitrosamine localization (nitrosamine localization [2]): does not inhibit nitrosamine localization

[Cl-].[Na+] [sodium chloride, reference compound]
LD50 (rats; acute oral, rats): about 3.75 g/Kg

CC(C)(C)O [t-butanol]
inhibition in bronchial epithelium (FIG. 1), ranking ([3]; from inspection of FIG. 1, oral pretreatment): greatest inhibition
localization of [14C] NNN in bronchial epithelium ([3]; high dosage (t-butanol 1 g/Kg oral), 20 min before i.v. [14C] NNN): almost completely abolished

Vitamin A
malignant growth [1]: suppress malignant growth

Vitamin E
formation of nitrosamines on epithelial membranes (epithelial membranes): prevent the formation of nitrosamines on epithelial membranes
